Values quoted from earlier work, collected in patent US20230210792A1, “USE OF A COMBINATION OF […] A CXCR-2 INHIBITORS FOR THE TREATMENT OR PREVENTION OF FAMILIAL MEDITERRANEAN FEVER (FMF) AND FLARE-UPS THEREOF” (ARISTEA THERAPEUTICS, INC., priority 2020, published 2023).

Compound: COc1cc2c(c(OC)c1OC)-c1ccc(OC)c(=O)cc1[C@@H](NC(C)=O)CC2 [Colchicine]
- Peak concentrations occur in (time to peak) (absorbed from the gastrointestinal tract): 0.5 to 2 h
- eliminated unchanged in the urine (metabolized in the liver, excreted primarily in the feces): 10-20%
